Test results taken from ChEMBL document CHEMBL3351570, “Design and synthesis of 2-phenylnaphthalenoids as inhibitors of DNA topoisomeraseIIα and antitumor agents” (Eur J Med Chem, 2014).
Active and inactive are the calls of the source. The calls are words filed in the database; no cut-off is given here.

Key:
MDA-MB-231 [1] = test: Cytotoxicity against human MDA-MB-231 cells after 72 hrs by sulforhodamine B assay; assay type: functional, cell-based; conditions: MDA-MB-231, 72 h
A549 = test: Cytotoxicity against human A549 cells after 72 hrs by sulforhodamine B assay; assay type: functional, cell-based; conditions: A549, 72 h
HeLa = test: Cytotoxicity against human HeLa cells after 72 hrs by sulforhodamine B assay; assay type: functional, cell-based
[2] = target: T1, DNA topoisomerase (Bos taurus) (UniProt A0JN73); test: Inhibition of calf thymus DNA topoisomerase 1 assessed as reduction in pBR322 DNA relaxation at 100 uM incubated for 30 mins by DNA gel electrophoresis
T1 sequence (whole entry): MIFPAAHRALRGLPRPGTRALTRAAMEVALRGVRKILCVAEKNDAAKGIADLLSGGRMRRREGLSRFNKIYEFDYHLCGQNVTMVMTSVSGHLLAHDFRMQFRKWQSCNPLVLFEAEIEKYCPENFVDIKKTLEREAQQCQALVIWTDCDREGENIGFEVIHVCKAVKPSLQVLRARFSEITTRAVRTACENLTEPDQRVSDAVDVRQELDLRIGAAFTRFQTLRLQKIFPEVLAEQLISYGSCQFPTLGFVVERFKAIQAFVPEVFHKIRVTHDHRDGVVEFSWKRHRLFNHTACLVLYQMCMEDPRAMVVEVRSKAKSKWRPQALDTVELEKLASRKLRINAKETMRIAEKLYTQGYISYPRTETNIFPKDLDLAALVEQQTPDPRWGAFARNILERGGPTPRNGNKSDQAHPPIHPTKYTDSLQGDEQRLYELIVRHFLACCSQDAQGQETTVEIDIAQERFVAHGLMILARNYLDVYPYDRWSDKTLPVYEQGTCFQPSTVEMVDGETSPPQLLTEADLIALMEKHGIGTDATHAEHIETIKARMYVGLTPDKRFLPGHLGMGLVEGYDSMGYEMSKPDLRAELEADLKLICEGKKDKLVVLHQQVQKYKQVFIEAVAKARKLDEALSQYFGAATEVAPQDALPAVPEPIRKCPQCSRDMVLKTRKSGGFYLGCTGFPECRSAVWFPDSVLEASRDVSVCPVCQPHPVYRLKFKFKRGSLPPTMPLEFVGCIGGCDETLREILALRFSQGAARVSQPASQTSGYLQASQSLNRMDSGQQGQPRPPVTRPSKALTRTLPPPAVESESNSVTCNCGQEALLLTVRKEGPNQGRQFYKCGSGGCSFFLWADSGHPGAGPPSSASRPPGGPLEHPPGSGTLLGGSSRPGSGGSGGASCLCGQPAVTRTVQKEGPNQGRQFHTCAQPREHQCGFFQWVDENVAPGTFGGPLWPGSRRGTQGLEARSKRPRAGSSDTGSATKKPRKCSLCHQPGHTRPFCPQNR

[3] = target: DNA topoisomerase 2-alpha (Homo sapiens) (UniProt P11388); test: Inhibition of human recombinant topoisomerase 2alpha assessed as reduction in pBR322 DNA relaxation at 100 uM incubated for 30 mins by DNA gel electrophoresis
Sequence of DNA topoisomerase 2-alpha (Homo sapiens) (P11388 whole entry): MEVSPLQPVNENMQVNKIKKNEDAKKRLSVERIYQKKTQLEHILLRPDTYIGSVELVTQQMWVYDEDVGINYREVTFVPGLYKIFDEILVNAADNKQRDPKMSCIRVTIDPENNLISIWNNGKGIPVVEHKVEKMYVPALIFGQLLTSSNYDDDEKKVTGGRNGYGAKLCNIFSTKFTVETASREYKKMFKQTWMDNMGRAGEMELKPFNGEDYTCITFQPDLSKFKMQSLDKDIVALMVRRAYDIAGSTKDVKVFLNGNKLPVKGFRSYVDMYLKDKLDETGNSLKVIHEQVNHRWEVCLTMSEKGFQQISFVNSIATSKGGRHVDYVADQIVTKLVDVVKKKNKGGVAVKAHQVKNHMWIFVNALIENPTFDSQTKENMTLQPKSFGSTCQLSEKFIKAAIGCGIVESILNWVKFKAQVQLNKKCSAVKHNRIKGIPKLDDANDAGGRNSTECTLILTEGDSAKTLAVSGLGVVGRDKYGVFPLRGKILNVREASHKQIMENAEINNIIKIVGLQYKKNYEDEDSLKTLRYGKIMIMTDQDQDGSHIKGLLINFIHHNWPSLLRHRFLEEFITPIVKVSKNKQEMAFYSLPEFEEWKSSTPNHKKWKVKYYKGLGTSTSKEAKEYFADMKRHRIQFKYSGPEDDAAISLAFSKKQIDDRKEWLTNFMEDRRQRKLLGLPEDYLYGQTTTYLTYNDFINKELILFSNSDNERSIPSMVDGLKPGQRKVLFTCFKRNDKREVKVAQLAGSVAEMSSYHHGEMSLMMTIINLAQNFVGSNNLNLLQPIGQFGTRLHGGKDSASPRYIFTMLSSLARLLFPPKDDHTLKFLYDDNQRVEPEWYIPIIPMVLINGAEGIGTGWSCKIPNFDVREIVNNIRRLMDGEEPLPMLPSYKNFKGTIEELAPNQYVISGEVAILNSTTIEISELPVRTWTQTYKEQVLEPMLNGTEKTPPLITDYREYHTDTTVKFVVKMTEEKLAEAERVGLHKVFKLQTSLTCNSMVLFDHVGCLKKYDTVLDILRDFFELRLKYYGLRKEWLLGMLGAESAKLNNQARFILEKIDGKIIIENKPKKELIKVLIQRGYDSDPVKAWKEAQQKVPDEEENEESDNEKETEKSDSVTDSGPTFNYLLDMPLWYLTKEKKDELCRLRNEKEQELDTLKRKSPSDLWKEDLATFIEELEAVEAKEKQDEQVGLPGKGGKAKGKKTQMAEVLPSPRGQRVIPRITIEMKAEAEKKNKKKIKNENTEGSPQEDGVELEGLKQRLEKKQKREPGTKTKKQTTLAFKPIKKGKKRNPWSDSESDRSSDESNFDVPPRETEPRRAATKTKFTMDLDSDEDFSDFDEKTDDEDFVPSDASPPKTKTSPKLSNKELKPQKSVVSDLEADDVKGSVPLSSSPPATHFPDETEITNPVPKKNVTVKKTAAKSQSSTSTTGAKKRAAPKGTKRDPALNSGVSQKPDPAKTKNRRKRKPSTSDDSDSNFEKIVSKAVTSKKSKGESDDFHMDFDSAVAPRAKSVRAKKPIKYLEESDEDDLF

[4] = target: DNA topoisomerase 2-alpha (Homo sapiens) (UniProt P11388); test: Inhibition of human recombinant topoisomerase 2alpha assessed as reduction in kDNA decatenation at 100 uM incubated for 30 mins by DNA gel electrophoresis
MDA-MB-231 [5] = test: Increase in histone H3 Ser10 phosphorylation in human MDA-MB-231 cells at 10 uM after 24 hrs by Western blot method; assay type: functional, cell-based
MDA-MB-231 [6] = test: Induction of DNA damage in human MDA-MB-231 cells assessed as increase in ATM S1981 phosphorylation at 10 uM after 24 hrs by Western blot method; assay type: functional, cell-based
MDA-MB-231 [7] = test: Antitumor activity against human MDA-MB-231 cells xenografted in BALB/c-nu mouse assessed as reduction in tumor weight at 20 mg/kg, iv dosed every other day for 15 days; assay type: functional; conditions: MDA-MB-231, 360 h
Mus musculus = test: Toxicity in nude BALB/c mouse xenografted with human MDA-MB-231 cells assessed as reduction in body weight at 20 mg/kg, iv dosed every other day for 15 days (reference value: 24.2 g); assay type: organism-based; set-up: dose 20 mg/kg, route intravenous; conditions: in vivo, 360 h
[8] = target: DNA topoisomerase 2-alpha (Homo sapiens) (UniProt P11388); conditions: 100 uM
Description: Inhibition of human recombinant topoisomerase 2alpha assessed as increase in linear DNA using circular supercoiled plasmid DNA substrate at 100 uM incubated for 30 mins by ethidium bromide staining based DNA gel electrophoresis

Nucleic Acid = test: Induction of DNA intercalation in Escherichia coli pBR322 DNA at 100 uM by DNA gel electrophoresis; assay type: nucleic-acid assay

| SMILES | IC50 (MDA-MB-231 [1]) | IC50 (A549) | IC50 (HeLa) | other results |
| --- | --- | --- | --- | --- |
| COc1ccc2cc(-c3ccc(CC(=O)O)cc3)ccc2c1 | 272 µM | > 20 µM | > 20 µM |  |
| COc1ccc2cc(-c3cccc(CO)c3)ccc2c1 | 19.9 µM | > 20 µM | 20 µM |  |
| COc1ccc2cc(-c3ccc(O)cc3)ccc2c1 | > 800 µM | > 20 µM | > 20 µM |  |
| COc1ccc(-c2ccc3cc(O)ccc3c2)cc1OC | 16.8 µM | 20 µM | 4.8 µM |  |
| OCCc1cc(-c2ccc3cc(O)ccc3c2)ccc1O | 0.4 µM | 0.6 µM | 0.6 µM | inhibition [2]: inactive; inhibition [3]: inactive; inhibition [4]: Active |
| O=C(O)c1cc(-c2ccc3cc(O)ccc3c2)ccc1O | 31.5 µM | > 20 µM | > 20 µM |  |
| Nc1ccc(-c2ccc3cc(O)ccc3c2)cc1 | 18.2 µM | 19.8 µM | 3.1 µM |  |
| O=Cc1cc(-c2ccc3cc(O)ccc3c2)ccc1O | 2.4 µM | 5 µM | 2.1 µM | inhibition [2]: Active; inhibition [3]: Active; inhibition [4]: Active |
| Oc1ccc(-c2ccc3cc(O)ccc3c2)cc1 | 10.5 µM | 11.4 µM | 3.1 µM |  |
| O=[N+]([O-])c1ccc(-c2ccc3cc(O)ccc3c2)cc1C(F)(F)F | 4.5 µM | 3.5 µM | 1.9 µM | inhibition [3]: Active; inhibition [4]: Active |
| Cc1cc(-c2ccc3cc(O)ccc3c2)ccc1N | 2.1 µM | 3.5 µM | 2.9 µM | inhibition [3]: Active; inhibition [4]: Active |
| COC(=O)Cc1cc(-c2ccc3cc(O)ccc3c2)ccc1O | 98 µM |  |  |  |
| COc1cc([C@@H]2c3cc4c(cc3[C@@H](O[C@@H]3O[C@@H]5CO[C@@H](C)O[C@H]5[C@H](O)[C@H]3O)[C@H]3COC(=O)[C@H]23)OCO4)cc(OC)c1O [ETOPOSIDE] | 3.67 µM | 13.8 µM | 4.36 µM | inhibition [3]: Active; Activity (MDA-MB-231 [5]): inactive; Activity (MDA-MB-231 [6]): Active; inhibition in vivo at 20 mg/kg (MDA-MB-231 [7]): 69%; Activity (Mus musculus): 20.1 g; inhibition [8]: Active |
| COc1ccc2cc(-c3cc(C(C)=O)c(O)c([N+](=O)[O-])c3)ccc2c1 | 19.8 µM | > 20 µM | > 20 µM | inhibition [4]: Active |
| COc1cccc2c1C(=O)c1c(O)c3c(c(O)c1C2=O)C[C@@](O)(C(=O)CO)C[C@@H]3O[C@H]1C[C@H](N)[C@H](O)[C@H](C)O1 |  |  |  | Activity (Nucleic Acid): Active |
| COC(=O)c1ccc(-c2ccc3cc(OC)ccc3c2)cc1 | > 800 µM | > 20 µM | > 20 µM |  |
| CC[C@@]1(O)C(=O)OCc2c1cc1n(c2=O)Cc2cc3ccccc3nc2-1 |  |  |  | inhibition [2]: Active |
| COC(=O)c1ccc(O)c(-c2ccc3cc(OC)ccc3c2)c1 | 36.5 µM | > 20 µM | > 20 µM |  |
| COc1ccc2cc(-c3cc(C=O)ccc3O)ccc2c1 | 25.3 µM | 14.1 µM | > 20 µM |  |
| COc1ccc2cc(-c3ccc(OC(C)=O)c(COC(C)=O)c3)ccc2c1 | 81.8 µM | > 20 µM | > 20 µM |  |
| COc1ccc2cc(-c3ccc([N+](=O)[O-])c(C(F)(F)F)c3)ccc2c1 | 165 µM | > 20 µM | > 20 µM |  |
| Oc1ccc2cc(-c3ccc(O)c(O)c3)ccc2c1 | 4.3 µM | 11.5 µM | 4.6 µM | inhibition [3]: Active; inhibition [4]: Active |
| O=C(O)c1ccc(-c2ccc3cc(O)ccc3c2)cc1O | 8.1 µM | 15.3 µM | 5.5 µM |  |
| COC(=O)Cc1cc(-c2ccc3cc(OC)ccc3c2)ccc1O | > 800 µM | > 20 µM | > 20 µM |  |
| COC(=O)c1ccc(C)c(-c2ccc3cc(OC)ccc3c2)c1 | > 800 µM | > 20 µM | 20 µM | inhibition [4]: Active |

| SMILES | IC50 (MDA-MB-231 [1]) | IC50 (A549) | IC50 (HeLa) | other results |
| --- | --- | --- | --- | --- |
| COc1ccc2cc(-c3ccc(O)c(C(=O)O)c3)ccc2c1 | 93.3 µM | > 20 µM | > 20 µM |  |
| COc1cc(-c2ccc3cc(O)ccc3c2)cc(C=O)c1O | 0.5 µM | 1.1 µM | 1.8 µM | inhibition [2]: Active; inhibition [3]: Active; inhibition [4]: Active |
| OCc1ccc(-c2ccc3cc(O)ccc3c2)cc1 | 29.5 µM | > 20 µM | 2.2 µM |  |
| COc1ccc2cc(-c3ccc(OC)c(C=O)c3)ccc2c1 | > 800 µM | > 20 µM | > 20 µM |  |
| CC(O)c1ccc(-c2ccc3cc(O)ccc3c2)cc1 (stereo unspecified) | 7.6 µM | 19.9 µM | 3.4 µM |  |
| CC(=O)c1cc(-c2ccc3cc(O)ccc3c2)cc([N+](=O)[O-])c1O | 1.4 µM | 4.2 µM | 2.1 µM | inhibition [2]: Active; inhibition [3]: Active; inhibition [4]: Active |
| COc1ccc2cc(-c3ccc(C(C)O)cc3)ccc2c1 (stereo unspecified) | 69.8 µM | > 20 µM | > 20 µM |  |
| COc1ccc2cc(-c3ccc(N)c(C)c3)ccc2c1 | > 800 µM | > 20 µM | > 20 µM |  |
| COc1ccc2cc(-c3ccc(CCO)c(O)c3)ccc2c1 | 92 µM | > 20 µM | > 20 µM |  |
| COC(=O)c1ccc(O)c(-c2ccc3cc(O)ccc3c2)c1 | 7.6 µM | 11.6 µM | 2.2 µM | inhibition [3]: Active |
| COc1ccc2cc(-c3cccc(C(F)(F)F)c3)ccc2c1 | 455 µM | > 20 µM | > 20 µM |  |
| COc1ccc2cc(-c3cc(C=O)c(O)c(OC)c3)ccc2c1 | 61.8 µM | > 20 µM | > 20 µM |  |
| COC(=O)c1ccc(C)c(-c2ccc3cc(O)ccc3c2)c1 | 0.5 µM | 5 µM | 1.2 µM | inhibition [3]: Active; inhibition [4]: Active |
| OCc1cccc(-c2ccc3cc(O)ccc3c2)c1 | 5 µM | 9.1 µM | 3.2 µM |  |
| COc1ccc2cc(-c3ccc(N)cc3)ccc2c1 | 168 µM | > 20 µM | > 20 µM |  |
| COc1ccc2cc(-c3ccc(OC)c(OC)c3)ccc2c1 | 112 µM | > 20 µM | > 20 µM |  |
| COC(=O)Cc1ccc(-c2ccc3cc(OC)ccc3c2)cc1 | 695 µM | > 20 µM | > 20 µM |  |
| COc1ccc2cc(-c3ccc(CO)cc3)ccc2c1 | 152 µM | 7.9 µM | 9.1 µM |  |
| Cc1ccc(C(=O)O)c(-c2ccc3cc(O)ccc3c2)c1 | 94.3 µM | > 20 µM | > 20 µM | inhibition [4]: Active |
| O=C(O)Cc1cc(-c2ccc3cc(O)ccc3c2)ccc1O | > 800 µM | > 20 µM | > 20 µM |  |
| COC(=O)C(O)c1ccc(-c2ccc3cc(OC)ccc3c2)cc1 (stereo unspecified) | 24.2 µM | > 20 µM | > 20 µM |  |
| COc1ccc2cc(-c3ccc(C(F)(F)F)cc3)ccc2c1 | 54.9 µM | > 20 µM | > 20 µM |  |
| COC(=O)c1ccc(-c2ccc3cc(OC)ccc3c2)cc1O | 77.3 µM | > 20 µM | > 20 µM |  |
| O=Cc1ccc(O)c(-c2ccc3cc(O)ccc3c2)c1 | 3.2 µM | 10.5 µM | 5 µM | inhibition [3]: Active; inhibition [4]: Active |
| COC(=O)c1cc(-c2ccc3cc(OC)ccc3c2)ccc1O | 82.2 µM | > 20 µM | > 20 µM |  |
